Measured values published in BindingDB's records for doi:10.1021/acs.biochem.6b01308 (Johns Hopkins University, 2017).

Key:
[1] = biological target: T1, Iodotyrosine deiodinase [1-228] (Haliscomenobacter hydrossis, UniProt F4KU78); assay: IYD Binding Assay
T1 construct: 1-228
T1 sequence (F4KU78 whole entry): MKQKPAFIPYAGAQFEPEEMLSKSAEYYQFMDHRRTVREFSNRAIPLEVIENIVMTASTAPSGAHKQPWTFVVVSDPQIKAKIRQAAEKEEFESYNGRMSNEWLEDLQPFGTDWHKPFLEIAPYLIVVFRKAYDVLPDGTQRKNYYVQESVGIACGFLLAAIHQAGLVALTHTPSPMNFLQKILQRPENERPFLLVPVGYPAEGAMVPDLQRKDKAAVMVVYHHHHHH
Experimental: (§1) Dissociation constants (Kd) for the ligands of IYD were determined by their ability to quench the fluorescence of the oxidized FMN (FMNox) (λex 450 nm, λem 523 nm) in the active site of IYD as previously described [Hu et al., J. Biol. Chem., 290:590-600; McTamney et al., J. Am. Chem. Soc., 131:14212-14213].

[2] = biological target: T2, Iodotyrosine deiodinase 1 [1-1,32-289] (Homo sapiens, UniProt Q6PHW0); assay: IYD Binding Assay
T2 construct: 1-1,32-289
T2 sequence (Q6PHW0 whole entry): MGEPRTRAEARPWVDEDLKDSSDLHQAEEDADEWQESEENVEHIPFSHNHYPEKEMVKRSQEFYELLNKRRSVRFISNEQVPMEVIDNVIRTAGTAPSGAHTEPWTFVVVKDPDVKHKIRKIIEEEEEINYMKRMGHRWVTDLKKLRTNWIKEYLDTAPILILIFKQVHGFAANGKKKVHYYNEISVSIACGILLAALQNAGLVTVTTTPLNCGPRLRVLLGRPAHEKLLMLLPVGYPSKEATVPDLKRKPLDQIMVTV
Experimental: as §1

Compound | Kd [1] [µM] | Kd [2] [µM]
Nc1ccc(O)c(I)c1 [4-Amino-2-iodophenol (4A2IP)] | 96 | 
N[C@@H](Cc1ccc(O)c(I)c1)C(=O)O | 8.2 | 0.09
Oc1ccccc1I [2-Iodophenol (2IP)] | 67 | 1410
O=C(O)c1ccc(O)c(I)c1 [4-Hydroxy-3-iodobenzoic acid (2IPCOOH)] | 24.1 | 
N#Cc1ccc(O)c(I)c1 [4-Cyano-2-iodophenol (2IPCN)] | 1.44 | 
